# Source: US20250257054A1, “SALT FORMS OF A 4H-PYRAN-4-ONE STRUCTURED CYP11 A1 INHIBITOR” (ORION CORPORATION, priority 2021, published 2025)
# Where a name gives a salt, the structure may show the parent alone.
# What was measured:
# Assay type in all cases: physicochemical
# [1] = Short-term physical stability of salts at 40° C./75% RH for 2 weeks (XRPD); conditions: determined by XRPD
# Description: (§1) XRPD measurements were performed with the X-ray powder diffractometer Bruker D8 Advance at room temperature, using a copper filled X-ray tube (40 kV×40 mA) as the X-ray source, CuKα (λ=1.5418 Å), a 0.6 mm divergence slit, 2.5° Soller slits on both the primary and secondary beams and the 1-dimensional LynxEye detector (with aperture angle of 2.91593°). Data collection was done in the range of 3.8-33° 2θ with 0.02° increments, at a scan speed of 0.3°/s.
# Short-term physical stability of various salts was studied by exposure at 40° C./75% RH for 2 weeks followed by measurement by XRPD.
# [2] = Slurry stability of crystalline forms of p-toluenesulfonic acid salt in different water activity conditions (XRPD); conditions: for Resulting form 5° C. / Resulting form 25° C. / Resulting form 40° C.: slurry of Form 3 stirred 2-3 weeks; for Water activity in which the crystalline form is favoured: slurry experiments, values stated as 'about'
# Description: as §1
# Stability of the crystalline forms of p-toluenesulfonic acid salt in different water activity conditions was studied in slurry experiments where crystalline form 3 was stirred for 2-3 weeks at 5° C., 25° C. and 40° C. in mixtures of ethanol:water, acetonitrile (ACN):water, methanol: water and methanol alone. 0.5 ml of solvent was added to 25 mg of each sample. The resulting crystalline form was determined by XRPD.
# [3] = Crystalline transformation of form 2 on drying; conditions: higher drying temperatures (than about 20-60° C., under reduced pressure)
# Description: In a preferred method, crystalline form 2 is prepared in high polymorphic purity and in consistent manner by first dissolving compound (I) in a mixture of acetonitrile and water, where the amount of water is from about 5% to about 15%, preferably from 6% to 12%, per volume of the mixture. The amount of compound (I) is suitably from about 5 g to about 15 g, preferably from about 9 g to 13 g, for example, about 11 g, per 100 ml of the solvent. If desired, activated carbon, celite and/or triamine metal scavenger may also be added. The mixture may be heated, for example, to a temperature of about 50-80° C., more specifically to about 70-80° C. The mixture can be thereafter filtered. To the filtrate is then added p-toluenesulfonic acid monohydrate, for example, in about equivalent molar amount, under heating at a temperature of about 50-80° C., more specifically at about 70° C. The mixture may then be cooled to about 60° C. and seeded, if desired. The mixture can then be stirred in this temperature for about 1 h, followed by cooling, for example to about 0-20° C., more specifically to about 5° C., to precipitate the product. The crystalline form 2 can be washed, for example, with water, and dried at about 20-60° C., preferably at about 25-35° C., for example at about 30° C., under reduced pressure. […]
# [4] = ACN:water 92.1:7.9, water activity 0.81
# [5] = ACN:water 96.3:3.7, water activity 0.58
# [6] = EtOH:water 30:70, water activity >0.9
# [7] = EtOH:water 83:17, water activity 0.64
# [8] = EtOH:water 92.8:7.2, water activity 0.40
# [9] = EtOH:water 96.7:3.3, water activity 0.22
# [10] = MeOH:water 36:64, water activity 0.83
# [11] = MeOH:water 77:23, water activity 0.52
# [12] = MeOH:water 90:10, water activity 0.30
# [13] = MeOH:water 95.3:4.7, water activity 0.16
smiles,measurement,setting,value
CS(=O)(=O)N1CCC(COc2coc(CN3Cc4ccc(C(F)(F)F)cc4C3)cc2=O)CC1 [2-Naphthalenesulphonic acid salt (form 1)] [5-((1-(methyl-sulfonyl)piperidin-4-yl)methoxy)-2-((5-(trifluoromethyl)isoindolin-2-yl)methyl)-4H-pyran-4-one],Form after 2 weeks,[1],No change
"CS(=O)(=O)N1CCC(COc2coc(CN3Cc4ccc(C(F)(F)F)cc4C3)cc2=O)CC1 [Benzenesulfonic acid salt (form 1), 5-((1-(methyl-sulfonyl)piperidin-4-yl)methoxy)-2-((5-(trifluoromethyl)isoindolin-2-yl)methyl)-4H-pyran-4-one]",Form after 2 weeks,[1],No change
"CS(=O)(=O)N1CCC(COc2coc(CN3Cc4ccc(C(F)(F)F)cc4C3)cc2=O)CC1 [Form 3, 5-((1-(methylsulfonyl)-piperidin-4-yl)methoxy)-2-((5-(trifluoromethyl)isoindolin-2-yl)methyl)-4H-pyran-4-one]",Stability of the crystalline form in the slurry conditions,"[2]; slurry in solvent:water mixtures and methanol, 5-40° C., 2-3 weeks",unstable
same,Resulting form 5° C.,[2]; [4],Form 2
same,Resulting form 25° C.,[2]; [4],Form 2
same,Resulting form 40° C.,[2]; [4],Form 2
same,Resulting form 5° C.,[2]; [5],Form 2
same,Resulting form 25° C.,[2]; [5],Form 2
same,Resulting form 40° C.,[2]; [5],Form 2
same,Resulting form 5° C.,[2]; [6],Form 2
same,Resulting form 25° C.,[2]; [6],Form 2
same,Resulting form 40° C.,[2]; [6],Form 2
same,Resulting form 5° C.,[2]; [7],Form 2
same,Resulting form 25° C.,[2]; [7],Form 2
same,Resulting form 40° C.,[2]; [7],Form 2
same,Resulting form 5° C.,[2]; [8],Form 1
same,Resulting form 25° C.,[2]; [8],Form 1
same,Resulting form 40° C.,[2]; [8],Form 1
same,Resulting form 5° C.,[2]; [9],Form 1
same,Resulting form 25° C.,[2]; [9],Form 1
same,Resulting form 40° C.,[2]; [9],Form 1
same,Resulting form 5° C.,[2]; MeOH alone,Form 1
same,Resulting form 25° C.,[2]; MeOH alone,Form 1
same,Resulting form 40° C.,[2]; MeOH alone,Form 1
same,Resulting form 5° C.,[2]; [10],Form 2
same,Resulting form 25° C.,[2]; [10],Form 2
same,Resulting form 40° C.,[2]; [10],Form 2
same,Resulting form 5° C.,[2]; [11],Form 2
same,Resulting form 25° C.,[2]; [11],Form 2
same,Resulting form 40° C.,[2]; [11],Form 1
same,Resulting form 5° C.,[2]; [12],Form 1
same,Resulting form 25° C.,[2]; [12],Form 1
same,Resulting form 40° C.,[2]; [12],Form 1
same,Resulting form 5° C.,[2]; [13],Form 1
same,Resulting form 25° C.,[2]; [13],Form 1
same,Resulting form 40° C.,[2]; [13],Form 1
"CS(=O)(=O)N1CCC(COc2coc(CN3Cc4ccc(C(F)(F)F)cc4C3)cc2=O)CC1 [Hydrobromic acid salt (form 1), 5-((1-(methyl-sulfonyl)piperidin-4-yl)methoxy)-2-((5-(trifluoromethyl)isoindolin-2-yl)methyl)-4H-pyran-4-one]",Form after 2 weeks,[1],No change
"CS(=O)(=O)N1CCC(COc2coc(CN3Cc4ccc(C(F)(F)F)cc4C3)cc2=O)CC1 [Hydrochloric acid salt (form 1), 5-((1-(methyl-sulfonyl)piperidin-4-yl)methoxy)-2-((5-(trifluoromethyl)isoindolin-2-yl)methyl)-4H-pyran-4-one]",Form after 2 weeks,[1],No change
"CS(=O)(=O)N1CCC(COc2coc(CN3Cc4ccc(C(F)(F)F)cc4C3)cc2=O)CC1 [Maleic acid salt (form 1), 5-((1-(methyl-sulfonyl)piperidin-4-yl)methoxy)-2-((5-(trifluoromethyl)isoindolin-2-yl)methyl)-4H-pyran-4-one]",Form after 2 weeks,[1],Form 1 + extra peaks
"CS(=O)(=O)N1CCC(COc2coc(CN3Cc4ccc(C(F)(F)F)cc4C3)cc2=O)CC1 [Methanesulfonic acid salt (form 1), 5-((1-(methyl-sulfonyl)piperidin-4-yl)methoxy)-2-((5-(trifluoromethyl)isoindolin-2-yl)methyl)-4H-pyran-4-one]",Form after 2 weeks,[1],No change
"CS(=O)(=O)N1CCC(COc2coc(CN3Cc4ccc(C(F)(F)F)cc4C3)cc2=O)CC1 [Oxalic acid salt (form 1), 5-((1-(methyl-sulfonyl)piperidin-4-yl)methoxy)-2-((5-(trifluoromethyl)isoindolin-2-yl)methyl)-4H-pyran-4-one]",Form after 2 weeks,[1],Form 1 + extra peaks
"CS(=O)(=O)N1CCC(COc2coc(CN3Cc4ccc(C(F)(F)F)cc4C3)cc2=O)CC1 [Oxalic acid salt (form 2), 5-((1-(methyl-sulfonyl)piperidin-4-yl)methoxy)-2-((5-(trifluoromethyl)isoindolin-2-yl)methyl)-4H-pyran-4-one]",Form after 2 weeks,[1],No change
"CS(=O)(=O)N1CCC(COc2coc(CN3Cc4ccc(C(F)(F)F)cc4C3)cc2=O)CC1 [Oxalic acid salt (form 3), 5-((1-(methyl-sulfonyl)piperidin-4-yl)methoxy)-2-((5-(trifluoromethyl)isoindolin-2-yl)methyl)-4H-pyran-4-one]",Form after 2 weeks,[1],Form 3 + extra peaks
"CS(=O)(=O)N1CCC(COc2coc(CN3Cc4ccc(C(F)(F)F)cc4C3)cc2=O)CC1 [Oxalic acid salt (form 4), 5-((1-(methyl-sulfonyl)piperidin-4-yl)methoxy)-2-((5-(trifluoromethyl)isoindolin-2-yl)methyl)-4H-pyran-4-one]",Form after 2 weeks,[1],No change
"CS(=O)(=O)N1CCC(COc2coc(CN3Cc4ccc(C(F)(F)F)cc4C3)cc2=O)CC1 [p-Toluenesulfonic acid salt (form 1), 5-((1-(methylsulfonyl)-piperidin-4-yl)methoxy)-2-((5-(trifluoromethyl)isoindolin-2-yl)methyl)-4H-pyran-4-one]",Water activity in which the crystalline form is favoured,"[2]; 5-40° C., 2-3 weeks, listed as crystalline form 1 of p-toluenesulfonic acid salt",up to 0.4
same,Form after 2 weeks,[1],No change
"CS(=O)(=O)N1CCC(COc2coc(CN3Cc4ccc(C(F)(F)F)cc4C3)cc2=O)CC1 [p-Toluenesulfonic acid salt (form 2), 5-((1-(methylsulfonyl)-piperidin-4-yl)methoxy)-2-((5-(trifluoromethyl)isoindolin-2-yl)methyl)-4H-pyran-4-one]",Water activity in which the crystalline form is favoured,"[2]; 5-40° C., 2-3 weeks, listed as Crystalline form 2 of p-toluenesulfonic acid salt",higher than 0.5
same,Form after 2 weeks,[1],No change
same,Crystalline transformation on drying,[3],some transformation of crystalline form 2 into crystalline form 1
